Source: US10336702B2, “Pharmaceutically active compounds” (BERGENBIO ASA, priority 2015, dated 2019)

What was measured:
[1] = biological target: T1, p-Akt1 in LNCaP cells (Homo sapiens, UniProt P31749); experiment: Phospho-Akt cellular SureFire assay, p-Akt1 in LNCaP cells; assay type: cell-based; details: read-out: Biological Assay 2 IC50 (nM) Akt1 LNCaP
T1 construct: SureFire assays to detect cellular p-Akt1, p-Akt2 and p-Akt3 levels in WM115 cells (Akt2/3) and LNCaP cells (Akt1); endogenous in cells; host or cells: LNCaP (ECACC 89110211)
Outline: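 Phospho-Thr308 Akt1 detected by AlphaScreen SureFire proximity beads in LNCaP lysates after 15 min compound treatment at 37 °C in 0.1% FBS medium, unstimulated, 0.3% DMSO. Cells plated at 5×10^4/well overnight; IC50 from a 4-parameter equation.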

[2] = biological target: T2, p-Akt3 in WM115 cells (Homo sapiens, UniProt Q9Y243); experiment: Phospho-Akt cellular SureFire assay, p-Akt3 in WM115 cells; assay type: cell-based; details: insulin stimulated, read-out: Biological Assay 2 IC50 (nM) Akt3 WM115
T2 construct: SureFire assays to detect cellular p-Akt1, p-Akt2 and p-Akt3 levels in WM115 cells (Akt2/3) and LNCaP cells (Akt1); endogenous in cells; host or cells: WM115 (ECACC 91061232), insulin-stimulated
Outline: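 pThr308-Akt3 in lysates was quantified by bead-proximity SureFire detection, pairing a phospho-specific antibody with a total Akt3 antibody. Before lysis, WM115 cells in 0.1% FBS medium were treated for 15 min at 37 °C with compound (final DMSO 0.3%), following a 10 min stimulation with 100 nM insulin. IC50 was obtained by 4-parameter fitting.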

[3] = biological target: T3, p-Akt2 in WM115 cells (Homo sapiens, UniProt P31751); experiment: Phospho-Akt cellular SureFire assay, p-Akt2 in WM115 cells; assay type: cell-based; details: insulin stimulated, read-out: Biological Assay 2 IC50 (nM) Akt2 WM115
T3 construct: SureFire assays to detect cellular p-Akt1, p-Akt2 and p-Akt3 levels in WM115 cells (Akt2/3) and LNCaP cells (Akt1); endogenous in cells; host or cells: WM115 (ECACC 91061232), insulin-stimulated
Outline: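 Readout is a bead-proximity SureFire assay pairing a pThr308 Akt antibody with a total Akt2 antibody, lysate and beads incubated 2 h plus 2 h at room temperature in the dark. Before lysis, serum-starved WM115 cells received 100 nM insulin (10 min), then test compound (15 min, 0.3% DMSO); IC50 by 4-parameter equation.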

[4] = biological target: T4, Akt2 (Homo sapiens, UniProt P31751); experiment: Akt activation assay (PDK1-mediated activation, LANCE Ultra crosstide TR-FRET), Akt2; assay type: biochemical; details: read-out: Biological Assay 1 IC50 (nM) Akt2
T4 construct: unspecified tag, removed (detagged) (cleaved yes); purchased SignalChem and Proteros (Akt2); Merck Millipore (PDK1) 14-452 (PDK1); none given for Akt2
Outline: (§1)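 Two-step cascade format: Akt1, Akt2 or Akt3 phosphorylates Ulight-crosstide (100 nM) only after activation by 5 nM PDK1 in presence of PtdIns(3,4,5)P3 vesicles and 100 μM ATP. Product quantified by Eu-antibody TR-FRET after 30 min reaction.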

[5] = biological target: T5, Akt3 (Homo sapiens, UniProt Q9Y243); experiment: Akt activation assay (PDK1-mediated activation, LANCE Ultra crosstide TR-FRET), Akt3; assay type: biochemical; details: read-out: Biological Assay 1 IC50 (nM) Akt3
T5 construct: unspecified tag, removed (detagged) (cleaved yes); purchased SignalChem and Proteros (Akt3); Merck Millipore (PDK1) 14-452 (PDK1); none given for Akt3
Outline: as §1

[6] = biological target: T6, Akt1 (Homo sapiens, UniProt P31749); experiment: Akt activation assay (PDK1-mediated activation, LANCE Ultra crosstide TR-FRET), Akt1; assay type: biochemical; details: read-out: Biological Assay 1 IC50 (nM) Akt1
T6 construct: unspecified tag, removed (detagged) (cleaved yes); purchased SignalChem and Proteros (Akt1); Merck Millipore (PDK1) 14-452 (PDK1); none given for Akt1
Outline: as §1

T2 sequence (Q9Y243 whole entry): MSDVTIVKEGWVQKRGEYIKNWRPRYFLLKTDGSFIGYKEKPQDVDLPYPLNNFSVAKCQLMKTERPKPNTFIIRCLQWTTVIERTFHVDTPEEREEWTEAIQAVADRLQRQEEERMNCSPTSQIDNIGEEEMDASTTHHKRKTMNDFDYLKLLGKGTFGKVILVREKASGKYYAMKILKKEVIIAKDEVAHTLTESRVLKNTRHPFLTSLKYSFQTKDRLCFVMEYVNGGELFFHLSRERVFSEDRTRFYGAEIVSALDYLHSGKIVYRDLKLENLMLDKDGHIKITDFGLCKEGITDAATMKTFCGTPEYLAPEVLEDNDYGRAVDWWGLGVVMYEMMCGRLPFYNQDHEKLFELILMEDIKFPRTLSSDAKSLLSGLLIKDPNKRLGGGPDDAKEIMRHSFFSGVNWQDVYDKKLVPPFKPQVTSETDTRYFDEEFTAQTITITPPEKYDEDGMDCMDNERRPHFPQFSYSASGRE
T5 sequence (Q9Y243 whole entry): as above
T6 sequence (P31749 whole entry): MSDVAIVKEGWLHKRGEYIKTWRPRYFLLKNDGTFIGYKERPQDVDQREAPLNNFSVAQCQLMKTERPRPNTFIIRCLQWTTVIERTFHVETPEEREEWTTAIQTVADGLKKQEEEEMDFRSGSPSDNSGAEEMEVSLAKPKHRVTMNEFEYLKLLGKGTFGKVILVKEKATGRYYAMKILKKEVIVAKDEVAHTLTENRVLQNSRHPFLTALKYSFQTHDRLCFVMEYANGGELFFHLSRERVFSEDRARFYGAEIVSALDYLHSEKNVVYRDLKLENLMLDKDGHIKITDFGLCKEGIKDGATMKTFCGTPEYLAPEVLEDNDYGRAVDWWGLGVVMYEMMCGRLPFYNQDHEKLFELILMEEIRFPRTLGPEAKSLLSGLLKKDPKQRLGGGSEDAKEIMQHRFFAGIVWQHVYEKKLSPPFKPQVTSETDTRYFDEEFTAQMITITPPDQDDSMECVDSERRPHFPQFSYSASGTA
T1 sequence (P31749 whole entry): as above
T3 sequence (P31751 whole entry): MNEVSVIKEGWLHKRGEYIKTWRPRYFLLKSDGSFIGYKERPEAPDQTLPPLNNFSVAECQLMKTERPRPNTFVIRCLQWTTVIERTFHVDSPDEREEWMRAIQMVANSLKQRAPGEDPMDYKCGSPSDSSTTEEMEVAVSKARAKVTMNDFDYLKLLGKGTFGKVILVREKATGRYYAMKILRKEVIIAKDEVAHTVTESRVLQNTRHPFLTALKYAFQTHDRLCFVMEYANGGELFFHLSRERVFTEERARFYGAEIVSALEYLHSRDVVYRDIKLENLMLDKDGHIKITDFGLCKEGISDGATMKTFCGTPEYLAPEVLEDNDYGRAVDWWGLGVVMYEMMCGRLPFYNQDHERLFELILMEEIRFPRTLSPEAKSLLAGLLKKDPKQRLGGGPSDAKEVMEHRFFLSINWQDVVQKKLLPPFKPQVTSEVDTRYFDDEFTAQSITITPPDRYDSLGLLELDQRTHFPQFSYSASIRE
T4 sequence (P31751 whole entry): as above

Row | IC50 [1] | IC50 [2] | IC50 [3] | IC50 [4] | IC50 [5] | IC50 [6] | Structure (SMILES)
1 | > 20000 nM | 220 nM | 3400 nM | 500 nM | 33 nM | > 30000 nM | NC1(c2ccc(-c3cnc(NC(=O)C[C@H]4CC[C@H](N5CCCC5=O)CC4)cc3-c3ccccc3)cc2)CC1 [Example A83, N-(5-(4-(1-aminocyclopropyl)phenyl)-4-phenylpyridin-2-yl)-2-(trans-4-(2-oxopyrrolidin-1-yl)cyclohexyl)acetamide]
2 | > 30000 nM | 520 nM | > 13000 nM | 6300 nM | 160 nM | > 30000 nM | CC(=O)N(C)[C@H]1CC[C@H](CC(=O)Nc2cc(-c3ccccc3)c(-c3ccc(C4(N)CC4)c(F)c3)nn2)CC1 [Example A54, N-(6-(4-(1-aminocyclopropyl)-3-fluorophenyl)-5-phenylpyridazin-3-yl)-2-(trans-4-(N-methylacetamido)cyclohexyl)acetamide]
3 | 1800 nM | 14 nM | 460 nM | 91 nM | 7 nM | 3100 nM | C[C@]1(O)C[C@@](N)(c2ccc(-c3cnc(NC(=O)C[C@H]4CC[C@H](N5CCCC5=O)CC4)cc3-c3ccccc3)cc2)C1 [Example A82, N-(5-(4-(trans-1-amino-3-hydroxy-3-methylcyclobutyl)phenyl)-4-phenylpyridin-2-yl)-2-(trans-4-(2-oxopyrrolidin-1-yl)cyclohexyl)acetamide]
4 | > 30000 nM | 200 nM | 5400 nM | 2300 nM | 55 nM | > 36000 nM | CC(C)(N)c1ccc(-c2ncc(NC(=O)C[C@H]3CC[C@H](NC(=O)C4CC4)CC3)cc2-c2ccccc2)cc1 [Example A20, N-(trans-4-(2-((6-(4-(2-aminopropan-2-yl)phenyl)-5-phenylpyridin-3-yl)amino)-2-oxoethyl)cyclohexyl)cyclopropane-carboxamide]
5 | > 10000 nM | 180 nM | 5000 nM | 520 nM | 92 nM | 6100 nM | COC(=O)N(C)[C@H]1CC[C@H](C(F)C(=O)Nc2cnc(-c3ccc(C4(N)CCC4)cc3)c(-c3ccccc3)c2)CC1 (relative stereo) [Example 52, Methyl (trans-4-(2-((6-(4-(1-aminocyclobutyl)phenyl)-5-phenylpyridin-3-yl)amino)-1-fluoro-2-oxoethyl)cyclohexyl)(methyl)carbamate]
6 | > 30000 nM | 90 nM | 2000 nM | 490 nM | 24 nM | > 30000 nM | CCC(=O)N(C)[C@H]1CC[C@H](CC(=O)Nc2cc(-c3ccccc3)c(-c3ccc(C4(N)CC4)cc3)nn2)CC1 [Example A91, N-(trans-4-(2-((6-(4-(1-aminocyclopropyl)phenyl)-5-phenylpyridazin-3-yl)amino)-2-oxoethyl)cyclohexyl)-N-methylpropionamide]
7 | 9100 nM | 44 nM | 1300 nM | 350 nM | 16 nM | 10000 nM | CN(C(=O)C1CC1)[C@H]1CC[C@H](CC(=O)Nc2cc(-c3ccccc3)c(-c3ccc([C@]4(N)C[C@H](F)C4)cc3)nn2)CC1 [Example 71, N-(trans-4-(2-((6-(4-(trans-1-amino-3-fluorocyclobutyl)phenyl)-5-phenylpyridazin-3-yl)amino)-2-oxoethyl)cyclohexyl)-N-methylcyclopropanecarboxamide]
8 | > 30000 nM | 180 nM | 15000 nM | 10000 nM | 92 nM | > 30000 nM | CC(=O)N(C)[C@H]1CC[C@H](CC(=O)Nc2cc(-c3ccsc3)c(-c3ccc(C(C)(C)N)cc3)nn2)CC1 [Example A96, N-(6-(4-(2-aminopropan-2-yl)phenyl)-5-(thiophen-3-yl)pyridazin-3-yl)-2-(trans-4-(N-methylacetamido)cyclohexyl)acetamide]
